Measured values reported in paper PMC7368294 (Proceedings of the National Academy of Sciences of the …, 2020).
Read-outs that look alike come from different tables or passages of the source.

Key:
Btα1/Btα8/Btβ1 nAChR = biological target: T1, Btα1/Btα8/Btβ1 nAChR (Bombus terrestris, UniProt A0A9B0BGM1+A0A9B0F4H3+A0A9B2JDZ7); assay: two-electrode voltage clamp of Xenopus oocytes, agonist concentration-response; format: cell-based
T1 sequence (A0A9B0F4H3 44-615): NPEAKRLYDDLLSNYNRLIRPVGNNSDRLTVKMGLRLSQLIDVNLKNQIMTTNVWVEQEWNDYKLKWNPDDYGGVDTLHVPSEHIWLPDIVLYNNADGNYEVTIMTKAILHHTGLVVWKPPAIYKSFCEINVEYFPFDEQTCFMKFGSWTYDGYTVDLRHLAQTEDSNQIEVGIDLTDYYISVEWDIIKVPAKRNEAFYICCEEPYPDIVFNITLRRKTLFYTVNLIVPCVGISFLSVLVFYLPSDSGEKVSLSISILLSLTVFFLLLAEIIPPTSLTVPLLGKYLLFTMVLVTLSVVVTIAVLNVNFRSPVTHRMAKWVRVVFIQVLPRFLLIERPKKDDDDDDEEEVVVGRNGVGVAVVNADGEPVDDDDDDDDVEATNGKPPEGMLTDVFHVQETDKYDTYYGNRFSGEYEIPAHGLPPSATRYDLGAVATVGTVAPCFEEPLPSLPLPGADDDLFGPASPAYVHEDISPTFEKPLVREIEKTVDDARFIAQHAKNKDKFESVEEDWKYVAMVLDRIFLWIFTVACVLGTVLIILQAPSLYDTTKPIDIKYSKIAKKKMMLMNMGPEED
T1 sequence (A0A9B2JDZ7 22-535): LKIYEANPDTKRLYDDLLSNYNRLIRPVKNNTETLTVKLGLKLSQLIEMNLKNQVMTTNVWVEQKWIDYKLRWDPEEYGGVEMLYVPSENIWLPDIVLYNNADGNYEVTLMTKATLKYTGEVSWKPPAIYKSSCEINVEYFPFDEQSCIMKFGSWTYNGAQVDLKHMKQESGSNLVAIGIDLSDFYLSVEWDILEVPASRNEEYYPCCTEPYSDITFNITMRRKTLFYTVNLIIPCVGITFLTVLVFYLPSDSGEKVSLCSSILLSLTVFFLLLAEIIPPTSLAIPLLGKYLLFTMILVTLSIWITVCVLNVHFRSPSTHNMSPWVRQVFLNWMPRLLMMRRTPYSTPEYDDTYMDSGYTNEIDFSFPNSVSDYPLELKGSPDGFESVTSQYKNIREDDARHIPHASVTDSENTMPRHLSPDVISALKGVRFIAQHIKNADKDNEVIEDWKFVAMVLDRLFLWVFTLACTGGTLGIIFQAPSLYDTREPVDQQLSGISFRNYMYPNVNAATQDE
T1 sequence (A0A9B0BGM1 19-519): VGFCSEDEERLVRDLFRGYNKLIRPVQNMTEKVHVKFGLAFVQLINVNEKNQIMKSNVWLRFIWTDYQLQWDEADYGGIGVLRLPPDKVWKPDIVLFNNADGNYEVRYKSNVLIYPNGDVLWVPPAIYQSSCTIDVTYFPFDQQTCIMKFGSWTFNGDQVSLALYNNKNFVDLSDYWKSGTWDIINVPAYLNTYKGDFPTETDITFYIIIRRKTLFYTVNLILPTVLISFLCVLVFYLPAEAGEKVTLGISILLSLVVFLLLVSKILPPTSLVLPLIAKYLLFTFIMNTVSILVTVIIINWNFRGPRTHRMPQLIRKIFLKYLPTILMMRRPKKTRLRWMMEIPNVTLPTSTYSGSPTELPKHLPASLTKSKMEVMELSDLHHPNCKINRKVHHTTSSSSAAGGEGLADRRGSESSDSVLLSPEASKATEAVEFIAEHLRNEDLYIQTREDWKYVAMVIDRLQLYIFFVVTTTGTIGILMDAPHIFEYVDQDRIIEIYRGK

[1] = biological target: Btα1/Btα2/Btα8/Btβ1 nAChR (Bombus terrestris, UniProt A0A9B0BGM1+A0A9B0F4H3+A0A9B2JDZ7+A0A9B2JMX7); assay: cell-based; parameters: species or system Xenopus laevis oocytes; conditions: Oocyte
[2] = biological target: Amα1/Amα2/Amα8/Amβ1 nAChR (Apis mellifera, UniProt A0A7M7MMZ9+A0A8U0WQ70+A0A8U0WQC0+A0A8U0WQD1); assay: cell-based; parameters: species or system Xenopus laevis oocytes; conditions: Oocyte
Chain of Amα1/Amα2/Amα8/Amβ1 nAChR (A0A7M7MMZ9 44-627): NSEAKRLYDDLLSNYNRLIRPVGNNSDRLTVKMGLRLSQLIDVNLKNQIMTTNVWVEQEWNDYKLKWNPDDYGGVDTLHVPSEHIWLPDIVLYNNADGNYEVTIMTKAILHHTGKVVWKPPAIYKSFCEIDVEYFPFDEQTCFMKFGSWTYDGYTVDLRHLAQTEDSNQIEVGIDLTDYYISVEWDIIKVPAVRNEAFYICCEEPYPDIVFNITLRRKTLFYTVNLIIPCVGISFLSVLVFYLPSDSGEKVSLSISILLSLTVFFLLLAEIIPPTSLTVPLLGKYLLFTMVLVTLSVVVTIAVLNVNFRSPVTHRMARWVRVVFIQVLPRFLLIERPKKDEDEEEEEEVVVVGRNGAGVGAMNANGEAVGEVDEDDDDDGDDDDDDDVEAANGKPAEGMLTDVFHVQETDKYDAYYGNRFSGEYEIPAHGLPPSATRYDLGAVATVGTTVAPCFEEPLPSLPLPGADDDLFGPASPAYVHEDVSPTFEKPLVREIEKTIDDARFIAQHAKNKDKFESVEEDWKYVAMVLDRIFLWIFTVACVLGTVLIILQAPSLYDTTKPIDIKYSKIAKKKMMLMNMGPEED
Chain of Amα1/Amα2/Amα8/Amβ1 nAChR (A0A8U0WQD1 18-541): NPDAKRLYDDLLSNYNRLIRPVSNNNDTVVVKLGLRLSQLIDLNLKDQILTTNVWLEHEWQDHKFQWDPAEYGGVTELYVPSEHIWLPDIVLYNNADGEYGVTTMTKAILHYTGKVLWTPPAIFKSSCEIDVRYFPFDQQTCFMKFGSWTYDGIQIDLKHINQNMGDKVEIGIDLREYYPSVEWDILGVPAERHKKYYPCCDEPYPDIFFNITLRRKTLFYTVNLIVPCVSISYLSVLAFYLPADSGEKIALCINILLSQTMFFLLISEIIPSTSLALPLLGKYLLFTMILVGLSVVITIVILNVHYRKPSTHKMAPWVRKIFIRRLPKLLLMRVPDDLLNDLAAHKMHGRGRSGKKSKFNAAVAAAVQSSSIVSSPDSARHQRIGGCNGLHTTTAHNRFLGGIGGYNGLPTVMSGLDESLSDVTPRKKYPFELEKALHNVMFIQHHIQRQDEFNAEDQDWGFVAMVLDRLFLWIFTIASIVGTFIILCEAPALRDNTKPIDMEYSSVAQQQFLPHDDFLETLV
Chain of Amα1/Amα2/Amα8/Amβ1 nAChR (A0A8U0WQ70 25-537): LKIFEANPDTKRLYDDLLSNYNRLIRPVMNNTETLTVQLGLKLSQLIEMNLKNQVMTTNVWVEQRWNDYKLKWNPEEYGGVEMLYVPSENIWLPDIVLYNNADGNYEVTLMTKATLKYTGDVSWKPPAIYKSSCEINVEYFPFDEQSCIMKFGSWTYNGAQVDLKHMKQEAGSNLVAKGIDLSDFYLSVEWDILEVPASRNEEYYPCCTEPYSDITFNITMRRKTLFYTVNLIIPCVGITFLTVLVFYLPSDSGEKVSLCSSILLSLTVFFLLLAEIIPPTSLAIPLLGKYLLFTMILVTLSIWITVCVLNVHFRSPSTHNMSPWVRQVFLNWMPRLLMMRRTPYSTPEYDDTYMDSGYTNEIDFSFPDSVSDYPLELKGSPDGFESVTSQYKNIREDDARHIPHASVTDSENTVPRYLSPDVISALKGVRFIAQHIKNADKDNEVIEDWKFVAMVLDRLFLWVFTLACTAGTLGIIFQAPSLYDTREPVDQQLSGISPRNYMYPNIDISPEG
Chain of Amα1/Amα2/Amα8/Amβ1 nAChR (A0A8U0WQC0 25-520): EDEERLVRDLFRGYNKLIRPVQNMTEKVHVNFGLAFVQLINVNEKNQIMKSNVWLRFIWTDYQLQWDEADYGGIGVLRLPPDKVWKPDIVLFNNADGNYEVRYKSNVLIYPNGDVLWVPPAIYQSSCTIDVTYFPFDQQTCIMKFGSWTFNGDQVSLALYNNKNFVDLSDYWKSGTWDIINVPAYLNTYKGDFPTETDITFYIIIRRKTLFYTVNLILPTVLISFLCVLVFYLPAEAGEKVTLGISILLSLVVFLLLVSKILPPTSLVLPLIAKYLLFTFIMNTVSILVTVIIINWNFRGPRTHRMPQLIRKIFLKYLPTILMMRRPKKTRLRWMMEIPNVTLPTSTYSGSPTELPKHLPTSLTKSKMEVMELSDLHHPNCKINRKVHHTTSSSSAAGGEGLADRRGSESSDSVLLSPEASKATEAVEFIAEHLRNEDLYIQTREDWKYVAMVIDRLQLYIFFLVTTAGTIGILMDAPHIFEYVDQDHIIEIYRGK

Chain of Btα1/Btα2/Btα8/Btβ1 nAChR (A0A9B2JMX7 18-544, one chain of several): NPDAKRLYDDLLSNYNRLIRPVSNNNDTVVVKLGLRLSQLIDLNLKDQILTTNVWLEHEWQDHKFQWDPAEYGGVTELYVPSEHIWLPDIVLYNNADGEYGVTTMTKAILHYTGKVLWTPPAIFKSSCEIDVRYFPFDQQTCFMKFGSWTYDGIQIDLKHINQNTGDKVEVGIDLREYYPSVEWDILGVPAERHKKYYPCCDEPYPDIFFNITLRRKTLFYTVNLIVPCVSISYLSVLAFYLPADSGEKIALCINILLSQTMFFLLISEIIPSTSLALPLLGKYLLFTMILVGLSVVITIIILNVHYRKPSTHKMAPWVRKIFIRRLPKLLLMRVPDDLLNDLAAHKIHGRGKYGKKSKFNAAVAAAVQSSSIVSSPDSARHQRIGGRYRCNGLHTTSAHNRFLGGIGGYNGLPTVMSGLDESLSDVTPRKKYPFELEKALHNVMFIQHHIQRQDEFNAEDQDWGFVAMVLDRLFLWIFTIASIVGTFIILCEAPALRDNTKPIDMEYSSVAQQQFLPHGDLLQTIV

Row | Compound | EC50 (Btα1/Btα8/Btβ1 nAChR) | Emax ([1]; read-out: Clothianidin / Imax) | Emax ([2]; read-out: Clothianidin / Imax) | Emax ([1]; read-out: Thiacloprid / Imax) | Emax ([2]; read-out: Thiacloprid / Imax) | Emax ([1]; read-out: Imidacloprid / Imax) | Emax ([2]; read-out: Imidacloprid / Imax)
1 | CN/C(=N\[N+](=O)[O-])NCc1cnc(Cl)s1 [clothianidin] | 13.5 nM | 68 ± 2.9% | 76.6 ± 2.4% |  |  |  | 
2 | N#C/N=C1\SCCN1Cc1ccc(Cl)nc1 [thiacloprid] | 51.3 nM |  |  | 9.2 ± 1.1% | 3.7 ± 0.3% |  | 
3 | O=[N+]([O-])NC1=NCCN1Cc1ccc(Cl)nc1 [imidacloprid] | 25.1 nM |  |  |  |  | 8.5 ± 0.7% | 7 ± 0.5%
